Data on eight molecules can be found in ChEMBL document CHEMBL5385924, “Stereoselective Synthesis of Xylodonin A and 22-Hydroxyxylodonin A and Discovery of Analogues with Cytotoxic Activity” (J Nat Prod, 2024).

The subject of one series is Pseudomonas aeruginosa. Kind of series: Antibacterial activity against Pseudomonas aeruginosa assessed as inhibition of bacterial growth. In kind it is functional, organism-based.
The subject of the next series is Salmonella typhimurium. In words: Antibacterial activity against Salmonella typhimurium assessed as inhibition of bacterial growth. The format is functional, organism-based. Conditions: Salmonella enterica subsp. enterica serovar Typhimurium.
In another series the test system is Escherichia coli. In words: Antibacterial activity against Escherichia coli assessed as inhibition of bacterial growth. The format is functional, organism-based.
For a further series, the system named is Staphylococcus aureus. In words: Antibacterial activity against Staphylococcus aureus assessed as inhibition of bacterial growth. In kind it is functional, organism-based.
A further series concerns Proteus vulgaris. Kind of series: Antibacterial activity against Proteus vulgaris assessed as inhibition of bacterial growth. In kind it is functional, organism-based.
The subject of series [1] is Mycolicibacterium smegmatis. Kind of series: Antibacterial activity against Mycobacterium smegmatis assessed as inhibition of bacterial growth. In kind it is functional, organism-based.
In another series the test system is Candida albicans. In words: Antifungal activity against Candida albicans assessed as inhibition of fungal growth. The format is functional, organism-based.
For series [2], the system named is HepG2. In words: Antiproliferative activity against human HepG2 cells assessed as reduction in cell viability measured after 48 hrs by CCK8 assay. The note with it: HepG2, 48 h. The format is functional, cell-based.
Series [3] can be described thus: Cytotoxicity against human HL7702 cells assessed as reduction in cell viability measured after 48 hrs by CCK8 assay. In kind it is toxicity, cell-based. The note with it: HL7702 (L02) cells. (In general: Tetrazolium assays rely on reduction of a dye to a coloured formazan, in cell work by metabolically active cells.)
Series [4] is described as follows: Selectivity index, ratio of IC50 for cytotoxicity against human HL7702 cells to IC50 for antiproliferative activity against human HepG2 cells. Conditions: HL7702 cells versus HepG2 cells, read-out: Ratio IC50. In kind it is toxicity, cell-based.
Series [5] relates to HepG2. In words: Inhibition of colony formation in human HepG2 cells assessed as relative colony formation area at 5 uM treated every 6 hrs for 24 hrs followed by culturing in fresh medium for 7 days by Giemsa staining based analysis. In kind it is functional. On the set-up: scale not given: the % may be the effect or the level left.
Series [6] deals with HepG2. In words: Inhibition of colony formation in human HepG2 cells assessed as relative colony formation area at 10 uM treated every 6 hrs for 24 hrs followed by culturing in fresh medium for 7 days by Giemsa staining based analysis. The format is functional. On the set-up: scale not given: the % may be the effect or the level left.
The test system of series [7] is HepG2. Kind of series: Inhibition of colony formation in human HepG2 cells assessed as relative colony formation area at 15 uM treated every 6 hrs for 24 hrs followed by culturing in fresh medium for 7 days by Giemsa staining based analysis. In kind it is functional. On the set-up: scale not given: the % may be the effect or the level left.
Series [8] relates to HepG2. Kind of series: Inhibition of colony formation in human HepG2 cells assessed as relative colony formation area at 20 uM treated every 6 hrs for 24 hrs followed by culturing in fresh medium for 7 days by Giemsa staining based analysis. The format is functional. On the set-up: scale not given: the % may be the effect or the level left.
Series [9] relates to HepG2. In words: Induction of apoptosis in human HepG2 cells assessed as viable cells at 10 uM measured after 48 hrs by AnnexinV-FITC/PI staining based flow cytometry (reference value: 95.88%). The format is functional. Conditions: read-out: Activity. (In flow cytometry, cells or beads pass a laser one at a time.)
In series [10] the test system is HepG2. In words: Induction of apoptosis in human HepG2 cells assessed as early apoptotic cells at 10 uM measured after 48 hrs by AnnexinV-FITC/PI staining based flow cytometry (reference value: 1.21%). In kind it is functional.
Series [11] deals with HepG2. In words: Induction of apoptosis in human HepG2 cells assessed as late apoptotic cells at 10 uM measured after 48 hrs by AnnexinV-FITC/PI staining based flow cytometry (reference value: 2.73%). In kind it is functional.
The test system of series [12] is HepG2. In words: Induction of apoptosis in human HepG2 cells assessed as necrotic cells at 10 uM measured after 48 hrs by AnnexinV-FITC/PI staining based flow cytometry (reference value: 0.19%). The format is functional.
In series [13] the test system is HepG2. Kind of series: Induction of apoptosis in human HepG2 cells assessed as viable cells at 20 uM measured after 48 hrs by AnnexinV-FITC/PI staining based flow cytometry (reference value: 95.88%). In kind it is functional. The note with it: read-out: Activity.
Series [14] relates to HepG2. Kind of series: Induction of apoptosis in human HepG2 cells assessed as early apoptotic cells at 20 uM measured after 48 hrs by AnnexinV-FITC/PI staining based flow cytometry (reference value: 1.21%). In kind it is functional.
The subject of series [15] is HepG2. In words: Induction of apoptosis in human HepG2 cells assessed as late apoptotic cells at 20 uM measured after 48 hrs by AnnexinV-FITC/PI staining based flow cytometry (reference value: 2.73%). The format is functional.
Series [16] concerns HepG2. Kind of series: Induction of apoptosis in human HepG2 cells assessed as necrotic cells at 20 uM measured after 48 hrs by AnnexinV-FITC/PI staining based flow cytometry (reference value: 0.19%). In kind it is functional.
Series [17] deals with HepG2. In words: Antimetastatic activity against human HepG2 cells assessed as inhibition of cell migration measured after 12 to 24 hrs by scratch wound healing assay. The format is functional, cell-based. The note with it: time 12-24 hrs.

Each structure is given as a SMILES string. The source made the active and inactive calls. The rule behind the calls is not given here.

In general, IC50 refers to the concentration at which inhibition is half-maximal. `CC1(C)CCC[C@]2(C)C3=C(COC3=O)C[C@H](OC(=O)/C=C/c3ccc(C(F)(F)F)cc3)[C@@H]12`: the outcome (in the series on Pseudomonas aeruginosa; with Salmonella typhimurium; with Escherichia coli; with Staphylococcus aureus; with Proteus vulgaris; in series [1]) was inactive. In the series on Candida albicans, the result was inactive. In addition, the IC50 in the series with HepG2 [2] was above 50 µM.

`CC1(C)CCC[C@]2(C)C3=C(COC3=O)C[C@H](OC(=O)/C=C/c3ccc(O)cc3)[C@@H]12`: the result (with Pseudomonas aeruginosa; with Salmonella typhimurium; in the series on Escherichia coli; in the series on Staphylococcus aureus; in the series with Proteus vulgaris; in series [1]) was inactive. For the same molecule, in the series on Candida albicans, the result was inactive. For the same molecule, the IC50 in the series with HepG2 [2] came out at 14.2 µM. The IC50 at 48 h in series [3] was above 100 µM. In series [4], the selectivity ratio was above 6.9.

With `CC1(C)CCC[C@]2(C)C3=C(COC3=O)C[C@H](O)[C@@H]12`, the result (with Pseudomonas aeruginosa; in the series on Salmonella typhimurium; with Escherichia coli; in the series on Staphylococcus aureus; in the series with Proteus vulgaris; in [1]) was inactive. In addition, the result in the series with Candida albicans was inactive. The IC50 in the series on HepG2 [2] was above 50 µM.

Take `CC1(C)CCC[C@]2(C)C3=C(COC3=O)C[C@H](OC(=O)/C=C/c3ccccc3)[C@@H]12`: the outcome (with Pseudomonas aeruginosa; in the series with Salmonella typhimurium; in the series on Escherichia coli; in the series on Staphylococcus aureus; with Proteus vulgaris; in series [1]) was inactive. For the same molecule, the result in the series with Candida albicans was inactive. For the same molecule, the IC50 in the series on HepG2 [2] was above 50 µM.

As to `CC1(C)CCC[C@]2(C)C3=C(COC3=O)C[C@H](OC(=O)/C=C/c3ccccc3F)[C@@H]12`, the outcome (in the series with Pseudomonas aeruginosa; with Salmonella typhimurium; with Escherichia coli; in the series with Staphylococcus aureus; with Proteus vulgaris; in series [1]) was inactive. In addition, the result in the series with Candida albicans was inactive. Moreover, the IC50 in the series with HepG2 [2] was 22.2 µM. In addition, in series [3], the IC50 at 48 h is above 100 µM. For the same molecule, in series [4], the selectivity ratio was above 4.5.

As for `CC1(C)CCC[C@]2(C)C3=C(COC3=O)C[C@H](OC(=O)/C=C/c3ccc(Cl)cc3)[C@@H]12`, the outcome (in the series on Pseudomonas aeruginosa; with Salmonella typhimurium; in the series on Escherichia coli; in the series with Staphylococcus aureus; in the series with Proteus vulgaris; in [1]) was inactive. Moreover, the outcome in the series on Candida albicans was inactive. Also, in the series on HepG2 [2], the IC50 is above 50 µM.

As to `CC(=O)Oc1ccc(/C=C/C(=O)O[C@H]2CC3=C(C(=O)OC3)[C@@]3(C)CCCC(C)(C)[C@H]23)cc1`, the outcome (in the series with Pseudomonas aeruginosa; in the series with Salmonella typhimurium; in the series on Escherichia coli; in the series on Staphylococcus aureus; in the series with Proteus vulgaris; in series [1]) was inactive. Besides, the result in the series with Candida albicans was inactive. Also, the IC50 in the series on HepG2 [2] was 8.8 µM. In addition, the IC50 at 48 h in series [3] is above 100 µM. For the same molecule, in [4], the selectivity ratio was above 11.4. Besides, the Activity in the series on HepG2 [5] is 11.2%; with HepG2 [6], 8.1%; in the series with HepG2 [7], 5.9%; with HepG2 [8], 2.3%; with HepG2 [10], 1.73%; in the series with HepG2 [11] it was 6.96%. For the same molecule, the Activity in the series with HepG2 [12] stood at 0.27%; with HepG2 [14] it was 14.41%; with HepG2 [15], 6.23%; with HepG2 [16] it was 0.2%. In the series with HepG2 [9], the viability at 10 µM came to 91%. For the same molecule, in the series on HepG2 [13], the viability at 20 µM was found to be 79.2%. Besides, the result in the series with HepG2 [17] was Active.

Regarding `COc1cc([C@@H]2c3cc4c(cc3[C@@H](O[C@@H]3O[C@@H]5CO[C@@H](C)O[C@H]5[C@H](O)[C@H]3O)[C@H]3COC(=O)[C@H]23)OCO4)cc(OC)c1O` [ETOPOSIDE], the IC50 with HepG2 [2] amounted to 5.9 µM. Besides, the IC50 at 48 h in series [3] was 49.6 µM. Besides, the selectivity ratio in series [4] came out at 8.4.
